# PMC4979471 (Cell Death Discovery, 2015)
# Where two headings read alike, the source gives them in different places.
# How the values were obtained:
# Test in all cases: Kinase selectivity, P33-radiolabeled assay
# Assay type in all cases: biochemical
# Settings in all cases: 10 μM ATP
# [1] = target: T1, GSK3b (Homo sapiens, UniProt P49841)
# T1 construct: purchased Reaction Biology Corp
# Outline: (§1)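 ATP at 10 μM; test article at 10 μM, single point, two replicates. Output is activity as % of DMSO.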
# [2] = target: T2, HIPK3 (Homo sapiens, UniProt Q9H422)
# T2 construct: purchased Reaction Biology Corp
# T2 sequence (Q9H422 whole entry): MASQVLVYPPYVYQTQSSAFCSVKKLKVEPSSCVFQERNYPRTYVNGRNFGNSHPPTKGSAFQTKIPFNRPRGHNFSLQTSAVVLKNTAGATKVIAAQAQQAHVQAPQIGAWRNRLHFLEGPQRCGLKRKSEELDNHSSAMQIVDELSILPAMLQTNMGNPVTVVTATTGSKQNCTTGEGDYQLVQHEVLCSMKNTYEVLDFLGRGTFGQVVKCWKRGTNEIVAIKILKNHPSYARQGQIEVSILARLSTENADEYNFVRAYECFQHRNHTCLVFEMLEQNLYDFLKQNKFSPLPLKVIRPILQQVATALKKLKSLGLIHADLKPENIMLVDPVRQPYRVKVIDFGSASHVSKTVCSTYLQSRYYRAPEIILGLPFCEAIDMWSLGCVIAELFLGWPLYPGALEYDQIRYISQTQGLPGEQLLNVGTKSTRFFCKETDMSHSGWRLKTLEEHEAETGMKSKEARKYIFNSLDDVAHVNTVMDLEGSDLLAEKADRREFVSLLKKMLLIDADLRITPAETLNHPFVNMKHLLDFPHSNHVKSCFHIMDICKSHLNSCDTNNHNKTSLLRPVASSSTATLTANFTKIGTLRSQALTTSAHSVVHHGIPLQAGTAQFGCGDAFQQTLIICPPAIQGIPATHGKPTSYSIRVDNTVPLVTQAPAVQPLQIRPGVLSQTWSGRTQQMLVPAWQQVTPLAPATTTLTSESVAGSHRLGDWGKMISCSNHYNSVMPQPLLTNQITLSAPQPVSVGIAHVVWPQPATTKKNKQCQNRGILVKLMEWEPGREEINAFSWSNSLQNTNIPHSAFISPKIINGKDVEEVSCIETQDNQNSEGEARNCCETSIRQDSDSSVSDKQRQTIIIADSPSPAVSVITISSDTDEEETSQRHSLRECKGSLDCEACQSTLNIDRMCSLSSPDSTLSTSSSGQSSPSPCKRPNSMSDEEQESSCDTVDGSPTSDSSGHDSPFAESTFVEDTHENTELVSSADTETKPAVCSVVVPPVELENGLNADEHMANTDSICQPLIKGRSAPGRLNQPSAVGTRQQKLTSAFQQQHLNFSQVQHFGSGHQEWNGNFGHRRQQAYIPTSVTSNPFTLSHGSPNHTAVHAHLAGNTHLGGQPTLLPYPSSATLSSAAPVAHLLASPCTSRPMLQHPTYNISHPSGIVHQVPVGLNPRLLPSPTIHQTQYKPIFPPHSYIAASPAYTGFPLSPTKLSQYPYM
# Outline: as §1
# [3] = target: T3, MNK2 (Homo sapiens, UniProt Q9HBH9)
# T3 construct: purchased Reaction Biology Corp
# T3 sequence (Q9HBH9 whole entry): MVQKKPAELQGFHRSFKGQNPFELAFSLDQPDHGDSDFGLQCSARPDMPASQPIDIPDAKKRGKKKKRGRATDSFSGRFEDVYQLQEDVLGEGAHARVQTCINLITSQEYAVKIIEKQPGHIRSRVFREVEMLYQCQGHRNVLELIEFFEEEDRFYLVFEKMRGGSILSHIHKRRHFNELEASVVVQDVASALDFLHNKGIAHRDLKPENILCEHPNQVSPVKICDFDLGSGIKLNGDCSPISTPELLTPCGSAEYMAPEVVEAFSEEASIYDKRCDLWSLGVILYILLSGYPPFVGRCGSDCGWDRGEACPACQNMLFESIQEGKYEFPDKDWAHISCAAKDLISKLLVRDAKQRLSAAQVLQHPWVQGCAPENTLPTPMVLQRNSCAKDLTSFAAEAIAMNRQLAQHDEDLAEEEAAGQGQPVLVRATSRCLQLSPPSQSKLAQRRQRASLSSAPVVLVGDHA
# Outline: as §1
# [4] = target: T4, MEKK1 (Homo sapiens, UniProt Q13233)
# T4 construct: purchased Reaction Biology Corp
# Outline: as §1
# [5] = target: T5, HGK/MAP4K4 (Homo sapiens, UniProt O95819)
# T5 construct: purchased Reaction Biology Corp
# Outline: as §1
# [6] = target: T6, GRK5 (Homo sapiens, UniProt P34947)
# T6 construct: purchased Reaction Biology Corp
# T6 sequence (P34947 whole entry): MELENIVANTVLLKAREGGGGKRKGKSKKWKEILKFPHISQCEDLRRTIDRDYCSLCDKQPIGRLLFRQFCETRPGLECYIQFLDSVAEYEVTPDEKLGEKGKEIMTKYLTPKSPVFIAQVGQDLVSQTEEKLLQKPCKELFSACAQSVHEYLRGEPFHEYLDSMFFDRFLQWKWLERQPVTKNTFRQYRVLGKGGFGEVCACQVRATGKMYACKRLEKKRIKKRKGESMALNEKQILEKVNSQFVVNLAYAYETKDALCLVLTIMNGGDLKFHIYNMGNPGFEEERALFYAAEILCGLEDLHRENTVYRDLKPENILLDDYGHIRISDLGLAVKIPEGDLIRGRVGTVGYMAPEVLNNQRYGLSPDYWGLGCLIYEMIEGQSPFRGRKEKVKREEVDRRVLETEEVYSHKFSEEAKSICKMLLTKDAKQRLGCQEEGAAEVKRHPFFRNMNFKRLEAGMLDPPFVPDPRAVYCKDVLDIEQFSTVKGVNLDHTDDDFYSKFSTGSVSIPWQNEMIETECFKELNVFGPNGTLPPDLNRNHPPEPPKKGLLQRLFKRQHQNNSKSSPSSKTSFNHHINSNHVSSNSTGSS
# Outline: as §1
# [7] = target: T7, CK2a2 (Homo sapiens, UniProt P19784)
# T7 construct: purchased Reaction Biology Corp
# T7 sequence (P19784 whole entry): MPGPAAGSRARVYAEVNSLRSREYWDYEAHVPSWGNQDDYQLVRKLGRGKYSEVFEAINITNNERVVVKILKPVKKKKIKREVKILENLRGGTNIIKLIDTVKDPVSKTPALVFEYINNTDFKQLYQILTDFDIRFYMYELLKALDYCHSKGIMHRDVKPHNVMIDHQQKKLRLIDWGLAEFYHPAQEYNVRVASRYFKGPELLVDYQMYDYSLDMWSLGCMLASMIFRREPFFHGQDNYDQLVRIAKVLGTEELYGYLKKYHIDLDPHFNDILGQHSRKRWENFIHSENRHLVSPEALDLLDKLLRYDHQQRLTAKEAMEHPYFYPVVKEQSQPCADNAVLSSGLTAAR
# Outline: as §1
# [8] = target: T8, NEK4 (Homo sapiens, UniProt P51957)
# T8 construct: purchased Reaction Biology Corp
# Outline: as §1
# [9] = target: T9, CAMKK2 (Homo sapiens, UniProt Q96RR4)
# T9 construct: purchased Reaction Biology Corp
# Outline: as §1
# [10] = target: T10, LYN (Homo sapiens, UniProt P07948)
# T10 construct: purchased Reaction Biology Corp
# Outline: as §1
# [11] = target: T11, STK39/STLK3 (Homo sapiens, UniProt Q9UEW8)
# T11 construct: purchased Reaction Biology Corp
# Outline: as §1
# [12] = target: T12, MRCKb/CDC42BPB (Homo sapiens, UniProt Q9Y5S2)
# T12 construct: purchased Reaction Biology Corp
# Outline: as §1
# [13] = target: T13, LOK/STK10 (Homo sapiens, UniProt O94804)
# T13 construct: purchased Reaction Biology Corp
# T13 sequence (O94804 whole entry): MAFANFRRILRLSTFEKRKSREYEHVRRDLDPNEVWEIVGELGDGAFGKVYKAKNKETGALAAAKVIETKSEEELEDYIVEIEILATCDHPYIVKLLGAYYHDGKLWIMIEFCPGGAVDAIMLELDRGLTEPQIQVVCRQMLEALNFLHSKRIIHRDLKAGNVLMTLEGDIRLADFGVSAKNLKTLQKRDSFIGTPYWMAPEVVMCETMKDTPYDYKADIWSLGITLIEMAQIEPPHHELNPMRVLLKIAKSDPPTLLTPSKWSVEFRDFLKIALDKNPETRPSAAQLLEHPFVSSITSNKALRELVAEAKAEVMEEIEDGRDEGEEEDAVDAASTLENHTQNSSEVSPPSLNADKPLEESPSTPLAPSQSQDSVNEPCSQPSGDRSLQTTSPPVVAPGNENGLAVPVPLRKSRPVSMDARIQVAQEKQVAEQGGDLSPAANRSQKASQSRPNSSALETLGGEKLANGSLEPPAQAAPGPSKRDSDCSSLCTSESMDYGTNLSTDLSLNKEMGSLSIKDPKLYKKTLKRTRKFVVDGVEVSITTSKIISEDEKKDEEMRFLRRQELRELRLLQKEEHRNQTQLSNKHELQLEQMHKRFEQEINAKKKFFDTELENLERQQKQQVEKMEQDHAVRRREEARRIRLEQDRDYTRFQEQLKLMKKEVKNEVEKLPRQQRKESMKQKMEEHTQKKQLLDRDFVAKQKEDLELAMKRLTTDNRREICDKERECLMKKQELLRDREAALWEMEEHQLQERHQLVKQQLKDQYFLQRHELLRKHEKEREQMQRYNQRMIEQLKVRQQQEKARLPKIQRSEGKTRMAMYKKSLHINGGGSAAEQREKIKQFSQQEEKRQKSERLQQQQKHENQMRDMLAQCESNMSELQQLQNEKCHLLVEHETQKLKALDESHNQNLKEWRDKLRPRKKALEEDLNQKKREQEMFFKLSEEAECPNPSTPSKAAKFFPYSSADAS
# Outline: as §1
# [14] = target: T14, FGFR3 (Homo sapiens, UniProt P22607)
# T14 construct: purchased Reaction Biology Corp
# T14 sequence (P22607 23-806): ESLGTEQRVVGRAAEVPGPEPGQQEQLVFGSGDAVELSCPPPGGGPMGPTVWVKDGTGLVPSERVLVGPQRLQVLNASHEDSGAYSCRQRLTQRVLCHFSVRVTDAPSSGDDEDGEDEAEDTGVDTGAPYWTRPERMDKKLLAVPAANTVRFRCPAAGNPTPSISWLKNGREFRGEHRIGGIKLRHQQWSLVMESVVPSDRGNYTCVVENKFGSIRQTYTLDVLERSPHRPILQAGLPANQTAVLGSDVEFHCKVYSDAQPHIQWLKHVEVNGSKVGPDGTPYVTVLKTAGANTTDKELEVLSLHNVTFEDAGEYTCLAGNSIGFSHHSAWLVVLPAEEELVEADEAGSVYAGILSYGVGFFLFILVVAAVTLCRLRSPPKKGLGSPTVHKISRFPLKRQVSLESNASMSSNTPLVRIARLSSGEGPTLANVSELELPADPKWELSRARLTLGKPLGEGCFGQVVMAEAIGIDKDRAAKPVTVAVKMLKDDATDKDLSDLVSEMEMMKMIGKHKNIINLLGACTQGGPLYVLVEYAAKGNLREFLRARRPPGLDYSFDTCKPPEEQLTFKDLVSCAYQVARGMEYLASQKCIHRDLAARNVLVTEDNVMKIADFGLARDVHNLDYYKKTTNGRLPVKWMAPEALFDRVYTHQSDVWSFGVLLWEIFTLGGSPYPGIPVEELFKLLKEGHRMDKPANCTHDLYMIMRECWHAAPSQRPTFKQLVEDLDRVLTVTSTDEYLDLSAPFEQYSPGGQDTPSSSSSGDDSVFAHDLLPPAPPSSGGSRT
# Outline: as §1
# [15] = target: T15, BMPR2 (Homo sapiens, UniProt Q13873)
# T15 construct: purchased Reaction Biology Corp
# T15 sequence (Q13873 27-1038): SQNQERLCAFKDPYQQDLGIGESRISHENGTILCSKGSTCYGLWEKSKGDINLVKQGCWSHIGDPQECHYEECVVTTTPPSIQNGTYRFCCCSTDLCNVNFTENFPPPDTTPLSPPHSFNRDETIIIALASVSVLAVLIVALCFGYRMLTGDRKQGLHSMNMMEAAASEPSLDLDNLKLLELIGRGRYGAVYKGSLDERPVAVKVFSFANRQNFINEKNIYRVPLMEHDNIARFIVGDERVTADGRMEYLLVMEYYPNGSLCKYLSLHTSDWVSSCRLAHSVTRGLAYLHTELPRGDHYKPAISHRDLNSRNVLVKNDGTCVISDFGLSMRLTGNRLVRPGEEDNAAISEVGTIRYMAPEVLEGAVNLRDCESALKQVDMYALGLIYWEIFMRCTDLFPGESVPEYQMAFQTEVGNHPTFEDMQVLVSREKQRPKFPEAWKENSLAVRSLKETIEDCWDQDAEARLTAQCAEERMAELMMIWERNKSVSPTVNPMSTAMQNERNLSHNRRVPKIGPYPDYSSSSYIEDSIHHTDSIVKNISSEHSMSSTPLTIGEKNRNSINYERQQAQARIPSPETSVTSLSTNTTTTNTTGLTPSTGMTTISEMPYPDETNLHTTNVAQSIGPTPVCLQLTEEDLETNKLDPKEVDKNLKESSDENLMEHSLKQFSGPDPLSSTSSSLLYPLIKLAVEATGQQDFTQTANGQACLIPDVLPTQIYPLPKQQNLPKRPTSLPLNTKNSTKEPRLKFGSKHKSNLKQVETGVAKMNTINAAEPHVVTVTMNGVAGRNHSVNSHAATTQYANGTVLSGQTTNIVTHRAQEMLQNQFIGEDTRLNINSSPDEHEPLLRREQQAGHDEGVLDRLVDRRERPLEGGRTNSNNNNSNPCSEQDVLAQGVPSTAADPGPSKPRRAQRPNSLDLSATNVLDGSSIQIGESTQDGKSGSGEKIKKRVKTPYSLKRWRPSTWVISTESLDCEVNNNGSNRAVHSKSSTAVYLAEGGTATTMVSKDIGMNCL
# Outline: as §1
# [16] = target: T16, SGK2 (Homo sapiens, UniProt Q9HBY8)
# T16 construct: purchased Reaction Biology Corp
# T16 sequence (Q9HBY8 1-367): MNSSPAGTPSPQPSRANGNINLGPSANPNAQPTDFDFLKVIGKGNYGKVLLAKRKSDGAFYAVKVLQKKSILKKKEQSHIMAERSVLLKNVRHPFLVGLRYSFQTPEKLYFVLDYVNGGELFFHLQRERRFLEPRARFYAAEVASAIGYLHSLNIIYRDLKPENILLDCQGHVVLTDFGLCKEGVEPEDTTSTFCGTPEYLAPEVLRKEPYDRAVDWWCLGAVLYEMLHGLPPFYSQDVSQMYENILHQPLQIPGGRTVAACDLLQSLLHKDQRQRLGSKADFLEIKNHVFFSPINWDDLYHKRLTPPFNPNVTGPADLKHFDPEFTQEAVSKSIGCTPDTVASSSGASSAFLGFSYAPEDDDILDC
# Outline: as §1
# [17] = read-out: % Enzyme Activity (relative to DMSO controls) AVG
# [18] = read-out: % Enzyme Activity (relative to DMSO controls) Data 1
# [19] = read-out: % Enzyme Activity (relative to DMSO controls) Data 2
# T1 sequence (P49841 whole entry): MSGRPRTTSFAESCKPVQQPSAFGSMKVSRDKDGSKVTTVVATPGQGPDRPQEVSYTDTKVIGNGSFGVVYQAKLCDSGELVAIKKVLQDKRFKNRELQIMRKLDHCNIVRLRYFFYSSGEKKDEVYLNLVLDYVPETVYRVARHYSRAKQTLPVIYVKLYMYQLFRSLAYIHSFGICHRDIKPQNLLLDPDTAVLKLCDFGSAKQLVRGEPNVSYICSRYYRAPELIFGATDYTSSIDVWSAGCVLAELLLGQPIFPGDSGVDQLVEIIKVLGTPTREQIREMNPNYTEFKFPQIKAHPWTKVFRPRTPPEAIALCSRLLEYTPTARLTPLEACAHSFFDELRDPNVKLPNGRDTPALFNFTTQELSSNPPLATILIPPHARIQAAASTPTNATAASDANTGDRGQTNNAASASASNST
smiles,measurement,setting,value
CC(C)(C)C(=O)N1N=CC[C@H]1c1ccccc1 [GSK′963],remaining activity at 10 µM,[1]; [17],98.7%
same,remaining activity at 10 µM,[1]; [18],98.8%
same,remaining activity at 10 µM,[1]; [19],98.6%
same,remaining activity at 10 µM,[2]; [17],100%
same,remaining activity at 10 µM,[2]; [18],100%
same,remaining activity at 10 µM,[2]; [19],101%
same,remaining activity at 10 µM,[3]; [17],109%
same,remaining activity at 10 µM,[3]; [18],107%
same,remaining activity at 10 µM,[3]; [19],111%
same,remaining activity at 10 µM,[4]; [17],97.3%
same,remaining activity at 10 µM,[4]; [18],101%
same,remaining activity at 10 µM,[4]; [19],94%
same,remaining activity at 10 µM,[5]; [17],95.7%
same,remaining activity at 10 µM,[5]; [18],94.5%
same,remaining activity at 10 µM,[5]; [19],97%
same,remaining activity at 10 µM,[6]; [17],99.4%
same,remaining activity at 10 µM,[6]; [18],98.2%
same,remaining activity at 10 µM,[6]; [19],101%
same,remaining activity at 10 µM,[7]; [17],107%
same,remaining activity at 10 µM,[7]; [18],108%
same,remaining activity at 10 µM,[7]; [19],107%
same,remaining activity at 10 µM,[8]; [17],102%
same,remaining activity at 10 µM,[8]; [18],102%
same,remaining activity at 10 µM,[8]; [19],102%
same,remaining activity at 10 µM,[9]; [17],83%
same,remaining activity at 10 µM,[9]; [18],86.1%
same,remaining activity at 10 µM,[9]; [19],80%
same,remaining activity at 10 µM,[10]; [17],107%
same,remaining activity at 10 µM,[10]; [18],109%
same,remaining activity at 10 µM,[10]; [19],105%
same,remaining activity at 10 µM,[11]; [17],95.1%
same,remaining activity at 10 µM,[11]; [18],100%
same,remaining activity at 10 µM,[11]; [19],89.9%
same,remaining activity at 10 µM,[12]; [17],106%
same,remaining activity at 10 µM,[12]; [18],109%
same,remaining activity at 10 µM,[12]; [19],102%
same,remaining activity at 10 µM,[13]; [17],94%
same,remaining activity at 10 µM,[13]; [18],93.1%
same,remaining activity at 10 µM,[13]; [19],95%
same,remaining activity at 10 µM,[14]; [17],99.4%
same,remaining activity at 10 µM,[14]; [18],103%
same,remaining activity at 10 µM,[14]; [19],95.7%
same,remaining activity at 10 µM,[15]; [17],103%
same,remaining activity at 10 µM,[15]; [18],102%
same,remaining activity at 10 µM,[15]; [19],103%
same,remaining activity at 10 µM,[16]; [17],107%
same,remaining activity at 10 µM,[16]; [18],109%
same,remaining activity at 10 µM,[16]; [19],106%
